As a reminder, the melting point is the temperature of the solid-liquid transition.

The test system of series [1] is human embryonic stem cell derived neural stem cells (NSCs). The series can be described thus: Neural stem cell proliferation assay (neurogenesis assay, ATP levels by CellTiterGlo). Type of series: cell-based. As to conditions: 96 h, concentration at which 150% activity of control (100%) is reached, NSC proliferation, ATP levels after 4 days incubation, dose response 8 μM to 8 nM. On the procedure:
Neural Stem Cell Proliferation Assay
Neurogenic properties of small molecules are determined based on the proliferation of human embryonic stem cell derived neural stem cells (NSCs) which were derived via a dual smad inhibition as previously described (Chambers, S. M., et al., Highly efficient neural conversion of human ES and iPS cells by dual inhibition of SMAD signaling, Nature biotechnology, 2009. 27(3): p. 275-80.)
Compounds respond is measured by the increase in cells based on ATP levels (Promega:CellTiterGlo®) after an incubation period of 4 days.
NSCs are thawed and expanded over 3 passages. On the 14th day, NSCs are seeded in Polyornithin/Laminin coated 384 well plates at a cell density of 21′000 cells/cm^2 in a media volume of 38 μl. 4 hours after cell seeding, compound solutions are added at a volume of 2 μl. Stock solutions of the compounds (water, 5% DMSO) are diluted to obtain a dose response (11 points, dilution factor is 2), ranging from 8 μM to 8 nM. Controls are run to consistently determine the neurogenic properties of the cells:
Negative (neutral) control is cell culture Media (final DMSO concentration: 0.25%).
1. cell culture Media+100 ng/ml FGF2 (final DMSO concentration: 0.1%)
2. cell culture Media+20 ng/ml EGF (final DMSO concentration: 0.1%)
3. cell culture Media+100 ng/ml Wnt3a (final DMSO concentration: 0.1%)
After 4 days incubation at 37° C., 5% CO2, the amount of ATP per well is quantified. The ATP concentration is proportional to the cell number. ATP is quantified by using the Promega CellTiterGlo® kit. The CellTiterGlo® reagents contain a cell lysis buffer, a thermo stable luciferase (UltraGlo™ recombinant luciferase), magnesium and luciferin. Luciferin reacts with ATP producing oxyluciferin, AMP and light. The luminescence signal is proportional to the ATP content.
The value of negative (neutral) control is determined for each assay plate by taking the average of 16 negative control wells. The neurogenic compound response is calculated for each compound as (compound/Negative Control)*100.
The values of EC150 from the dose response curve are determined for each test compound. The EC150 is the compound concentration at which 150% activity of control (100%) is reached.
A general note: In ATP-based viability assays light output follows the ATP content of the culture.

`CC(C)Cc1cc(F)cc2cc3n(c12)CCNC3=O` [Example 23, 8-Fluoro-6-(2-methylpropyl)-3,4-dihydro-2H-pyrazino[1,2-a]indol-1-one]: the melting point was determined as 229 °C. Moreover, the EC (150% of control) in series [1] came out at 0.02 µM.
Compound `Cc1c2n(c3c(OCC(F)(F)F)cc(F)cc13)CCNC2=O` [Example 24, 8-Fluoro-10-methyl-6-(2,2,2-trifluoroethoxy)-3,4-dihydro-2H-pyrazino[1,2-a]indol-1-one] displayed a melting point of 239 °C. The compound also returned an EC (150% of control) in series [1] of 0.17 µM.
On to `CC(C)Cc1cc(C#N)cc2cc3n(c12)CCNC3=O` [Example 21, 6-Isobutyl-1-oxo-1,2,3,4-tetrahydro-pyrazino[1,2-a]indole-8-carbonitrile], for which the melting point came to 260.5 °C. In series [1], the EC (150% of control) came to 0.14 µM.
Taken in the same sequence, the figures for `Cc1cc(Cl)cc2cc3n(c12)CCNC3=O` [Example 27, 8-Chloro-6-methyl-3,4-dihydro-2H-pyrazino[1,2-a]indol-1-one] were 263 °C and 5.1 µM.
Consider `CCc1cc(F)cc2c(C)c3n(c12)CCNC3=O` [Example 8, 6-Ethyl-8-fluoro-10-methyl-3,4-dihydro-2H-pyrazino[1,2-a]indol-1-one], for which the melting point is 177 °C. The EC (150% of control) in series [1] was 0.019 µM.
In the case of `Cc1cc(CC(C)C)c2c(c1)cc1n2CCCNC1=O` [Example 32, 9-Methyl-7-(2-methylpropyl)-2,3,4,5-tetrahydro-[1,4]diazepino[1,2-a]indol-1-one], the melting point came out at 160 °C. In series [1], the EC (150% of control) was found to be 2.6 µM.
Taken in the same sequence, the figures for `C#Cc1cc(F)cc2c(C)c3n(c12)CCNC3=O` [Example 20, 6-Ethynyl-8-fluoro-10-methyl-3,4-dihydro-2H-pyrazino[1,2-a]indol-1-one] were 259 °C and 0.04 µM.
Taken in the same sequence, the figures for `Cc1c2n(c3c(C)cc(Cl)cc13)CCNC2=O` [Example 7, 8-Chloro-6,10-dimethyl-3,4-dihydro-2H-pyrazino[1,2-a]indol-1-one] were 251 °C and 0.11 µM.
Compound `Cc1c2n(c3c(N4CC5(COC5)C4)cc(F)cc13)CCNC2=O` [Example 16, 8-Fluoro-10-methyl-6-(2-oxa-6-aza-spiro[3.3]hept-6-yl)-3,4-dihydro-2H-pyrazino[1,2-a]indol-1-one] came in with a melting point of 237 °C. The EC (150% of control) in series [1] was determined as 0.23 µM.
Taken in the same sequence, the figures for `CC(C)Cc1cc(OC(F)(F)F)cc2cc3n(c12)CCNC3=O` [Example 37, 6-(2-Methylpropyl)-8-(trifluoromethoxy)-3,4-dihydro-2H-pyrazino[1,2-a]indol-1-one] were 166 °C and 0.89 µM.
For `Cc1c2n(c3c(N4CCS(=O)(=O)CC4)cc(F)cc13)CCNC2=O` [Example 9, 6-(1,1-Dioxo-1λ^6-thiomorpholin-4-yl)-8-fluoro-10-methyl-3,4-dihydro-2H-pyrazino[1,2-a]indol-1-one] the same measures were 387 °C and 0.015 µM.
For `CC(C)Cc1cc(Cl)cc2cc3n(c12)CCCNC3=O` [Example 25, 9-Chloro-7-(2-methylpropyl)-2,3,4,5-tetrahydro-[1,4]diazepino[1,2-a]indol-1-one] the same measures were 186 °C and 1.15 µM.
`Cc1c2n(c3ccc(F)cc13)CCNC2=O` [Example 4, 8-Fluoro-10-methyl-3,4-dihydro-2H-pyrazino[1,2-a]indol-1-one] showed a melting point of 230 °C. Also, the EC (150% of control) in series [1] was found to be 0.31 µM.
Regarding `Cc1cc(CC(C)C)c2c(c1)cc1n2CCNC1=O` [Example 31, 8-Methyl-6-(2-methylpropyl)-3,4-dihydro-2H-pyrazino[1,2-a]indol-1-one], the melting point worked out at 182 °C. The compound further registered an EC (150% of control) in series [1] of 1.16 µM.
For `Cc1c2n(c3c(N4CCOCC4)cc(C#N)cc13)CCNC2=O` [Example 41, 10-Methyl-6-morpholin-4-yl-1-oxo-3,4-dihydro-2H-pyrazino[1,2-a]indole-8-carbonitrile] the same measures were 276 °C and 0.092 µM.
In turn, `Cc1c2n(c3c(C#N)cc(F)cc13)CCNC2=O` [Example 29, 8-Fluoro-10-methyl-1-oxo-3,4-dihydro-2H-pyrazino[1,2-a]indole-6-carbonitrile] yielded a melting point of 265 °C. Also, the EC (150% of control) in series [1] is 0.5 µM.
For `COc1cc(CC(C)C)c2c(c1)cc1n2CCNC1=O` [Example 36, 8-Methoxy-6-(2-methylpropyl)-3,4-dihydro-2H-pyrazino[1,2-a]indol-1-one] the same measures were 175 °C and 4.1 µM.
For `Cc1cc(C)c2c(c1)cc1n2CCNC1=O` [Example 33, 6,8-Dimethyl-3,4-dihydro-2H-pyrazino[1,2-a]indol-1-one] the same measures were 253 °C and 4.9 µM.
Taken in the same sequence, the figures for `Cc1c2n(c3c(OC(F)(F)F)cc(C#N)cc13)CCNC2=O` [Example 30, 10-Methyl-1-oxo-6-(trifluoromethoxy)-3,4-dihydro-2H-pyrazino[1,2-a]indole-8-carbonitrile] were 253 °C and 0.11 µM.
For `Cc1c2n(c3c(N4CCS(=O)(=O)CC4)cc(C#N)cc13)CCNC2=O` [Example 19, 6-(1,1-Dioxo-1λ^6-thiomorpholin-4-yl)-10-methyl-1-oxo-1,2,3,4-tetrahydro-pyrazino[1,2-a]indole-8-carbonitrile], the melting point amounted to 400 °C. In series [1], this compound had an EC (150% of control) of 0.008 µM.
For `Cc1c2n(c3c(C)cc(Cl)cc13)CCCNC2=O` [Example 39, 9-Chloro-7,11-dimethyl-2,3,4,5-tetrahydro-[1,4]diazepino[1,2-a]indol-1-one] the same measures were 198 °C and 0.36 µM.
Taken in the same sequence, the figures for `Cc1c2n(c3c(CC(C)C)cc(Cl)cc13)CCCNC2=O` [Example 38, 9-Chloro-11-methyl-7-(2-methylpropyl)-2,3,4,5-tetrahydro-[1,4]diazepino[1,2-a]indol-1-one] were 176 °C and 0.37 µM.
Taken in the same sequence, the figures for `Cc1c2n(c3c(CC(C)C)cc(F)cc13)CCNC2=O` [Example 3, 8-Fluoro-6-isobutyl-10-methyl-3,4-dihydro-2H-pyrazino[1,2-a]indol-1-one] were 189 °C and 0.009 µM.
In the case of `Cc1c2n(c3c(CCC(C)C)cc(F)cc13)CCNC2=O` [Example 12, 8-Fluoro-10-methyl-6-(3-methyl-butyl)-3,4-dihydro-2H-pyrazino[1,2-a]indol-1-one], the melting point came to 161 °C. The EC (150% of control) in series [1] was 0.07 µM.
For `C=CCc1cc(F)cc2c(C)c3n(c12)CCNC3=O` [Example 11, 6-Allyl-8-fluoro-10-methyl-3,4-dihydro-2H-pyrazino[1,2-a]indol-1-one] the same measures were 172 °C and 0.14 µM.
For `Cc1cc(F)cc2cc3n(c12)CCCNC3=O` [Example 1, 9-Fluoro-7-methyl-2,3,4,5-tetrahydro-[1,4]diazepino[1,2-a]indol-1-one] the same measures were 198 °C and 0.21 µM.
Taken in the same sequence, the figures for `Cc1c2n(c3c(CCCC#N)cc(F)cc13)CCNC2=O` [Example 13, 4-(8-Fluoro-10-methyl-1-oxo-1,2,3,4-tetrahydro-pyrazino[1,2-a]indol-6-yl)-butyronitrile] were 194 °C and 0.31 µM.
`Cc1c2n(c3c(C)cc(C#N)cc13)CCCNC2=O` [Example 35, 7,11-Dimethyl-1-oxo-2,3,4,5-tetrahydro-[1,4]diazepino[1,2-a]indole-9-carbonitrile] displayed a melting point of 255 °C. In series [1], this compound had an EC (150% of control) of 3.19 µM.
On to `CC(C)Cc1cc(Cl)cc2cc3n(c12)CCNC3=O` [Example 26, 8-Chloro-6-(2-methylpropyl)-3,4-dihydro-2H-pyrazino[1,2-a]indol-1-one], for which the melting point is 236 °C. The EC (150% of control) in series [1] was 0.16 µM.
For `Cc1c2n(c3c(N4CCS(=O)(=O)CC4)cc(Cl)cc13)CCNC2=O` [Example 17, 8-Chloro-6-(1,1-dioxo-1λ^6-thiomorpholin-4-yl)-10-methyl-3,4-dihydro-2H-pyrazino[1,2-a]indol-1-one] the same measures were 386 °C and 0.011 µM.

Source of the values: US9586966B2, “Piperazino[1,2-a]indol-1-ones and [1,4]diazepino[1,2-a]indol-one” (Hoffmann-La Roche Inc., priority 2013, dated 2017).
